Laboratory results as given in a melting point compilation (Tetko et al.).

melting point [°C]	SMILES
176 to 178	O=C(O)/C=C/c1ccc(F)cc1[N+](=O)[O-]
199 to 201	O=C1CCC2(CC1)NC(=O)NC2=O
194 to 196	Cc1ccc(/C=C/C(=O)O)cc1Cl
223 to 225	Cc1nn(C)c(C)c1CC(=O)O
158 to 160	Nc1ccc(C(=O)NC2CC2)c(Cl)c1
141 to 143	COc1cc(I)c(Cl)cc1C(=O)O
136 to 138	Nc1nonc1C(=O)N1CCOCC1
135 to 137	COCCNC(=O)Nc1ccc(N)cc1
243 to 245	O=C1c2ccccc2C(=O)N1CCc1ncc[nH]1
234 to 236	COC(=O)c1n[nH]c(=O)c2noc(C3CC3)c12
89 to 91	Cc1cc(-c2csc(N)n2)c(C)o1
178 to 180	CC(NC(=O)C1CCOCC1)C(=O)O (centres undefined)
206 to 208	O=C(O)c1cc(OCC(F)(F)F)c2ccccc2n1
104 to 106	C=CCN(CC=C)C(=O)c1ccc(N)cc1
107 to 109	CC1CNc2ccccc2N(Cc2ccccc2)C1=O (centres undefined)
89 to 91	Nc1ccc(Oc2ccc(Cl)cc2)nc1
132 to 134	N#Cc1cccc(NC(=O)c2ccccc2F)c1
269 to 271	O=C(O)Cc1ccc(NC(=O)c2ccc(Br)cc2)cc1
105 to 107	CC1(C(=O)O)CCc2ccccc2C1 (centres undefined)
41 to 43	O=[N+]([O-])c1ccc(OCC(F)(F)F)nc1
134 to 136	O=S(=O)(Cl)c1ccc2oc3ccccc3c2c1
85 to 87	COCc1cc(C(=O)O)no1
135 to 137	COc1cc(C(=O)O)cc(N)c1OC

melting point [°C]	SMILES
110 to 112	CC(Oc1cccc(C#N)c1)C(=O)O (centres undefined)
100 to 102	Cn1cnc([N+](=O)[O-])c1S(=O)(=O)Cl
229 to 231	Cc1ccc(-c2nn(-c3ccccc3)cc2C(=O)O)cc1
66 to 68	CC(C)CC(CCC(=O)O)C(=O)O (centres undefined)
120 to 122	NC(=NO)c1ccccc1OCc1ccccc1
157 to 159	O=C(O)Cc1c[nH]c2ccc(Cl)cc12
67 to 69	CC(C)(C)Sc1ccc(N)cc1
88 to 92	COc1ccc(C(=O)CCl)cc1F
139 to 141	O=C1COc2c(Br)cc(Cl)cc21
202 to 204	Cc1nn(-c2cccc(Cl)c2)nc1C(=O)O
149 to 151	CS(=O)(=O)Nc1ccc(S(=O)(=O)Cl)c(F)c1
99 to 101	Cc1ccccc1-c1nnc(CCl)o1
59 to 61	CCC1CCc2[nH]c3ccc(C)cc3c2C1 (centres undefined)
42 to 44	O=C(c1ccccc1)c1ccc(F)cn1
199 to 201	O=C(O)c1cccn1-c1ccc(I)cc1
109 to 111	COc1cccc(-c2cc(N)n(-c3ccc(C)cc3)n2)c1
94 to 96	CC1CC1C(=O)NCCC(=O)O (centres undefined)
51 to 53	Nc1ccc2ccoc2c1
174 to 176	CCCNC(=O)Nc1ccc(CC(=O)O)cc1
103 to 105	O=CN1CCN(S(=O)(=O)Cl)CC1
138 to 140	Cc1cccc(C)c1OCC(=O)O
129 to 131	Cc1nnc(NCCC(C)C)c2ccccc12
186 to 188	Nc1nc(-c2cccc([N+](=O)[O-])c2)cs1

melting point [°C]	SMILES
218 to 220	O=C(CCl)NCC(=O)Nc1ccccc1Br
72 to 74	c1ccc(C2NCCn3cccc32)cc1 (centres undefined)
70 to 72	COC(=O)c1oc2ccccc2c1C
66 to 68	O=C(Cc1ccccn1)c1cccnc1
110 to 112	O=C(Nc1cc(Cl)ccc1Cl)OCC(F)(F)F
114 to 116	Cc1nc(Cl)c2cnn(-c3ccc(F)cc3)c2n1
270 to 272	O=c1[nH]nc(-c2ccc(F)cc2)c2ccccc12
216 to 218	O=C(O)c1ccc2nnnn2c1
89 to 91	O=C(O)CC1CCOc2ccccc21 (centres undefined)
58 to 60	COc1cc(C(C)=O)ccc1S
49 to 51	O=S(=O)(Cl)c1ccc(C2CCCCC2)cc1
84 to 86	COC(=O)c1cc(N)ccc1F
139 to 141	N#Cc1nc2ccccc2cc1Br
181 to 183	O=C(O)CCn1cnc2ccccc2c1=O
183 to 185	O=C(O)c1cnn(-c2ccccc2)n1
94 to 96	O=S(=O)(NC1CC1)C1CCN(Cc2ccccc2)C1 (centres undefined)
150 to 152	O=C(O)CCc1nc(-c2ccc(F)cc2)no1
197 to 199	O=C(COc1ccccc1C(=O)O)Nc1ccccc1F
175 to 177	CCc1cc(Cl)n2c(nc3ccccc32)c1C#N
41 to 43	CC1(C)CCCCC1CC(=O)O (centres undefined)
170 to 172	Nc1ccc(C(=O)N2CCCCC2)nc1
124 to 126	CCOC(=O)Nc1ccc(O)cc1
204 to 206	NC(=O)NC1CCCc2ccccc21 (centres undefined)

melting point [°C]	SMILES
194 to 197	COCCNS(=O)(=O)c1ccc(Br)c(C(=O)O)c1
93 to 95	CC(C)CCNC(N)=S
171 to 173	O=C(O)Cc1ccc(-n2cccc2)cc1
199 to 201	COc1ccc(Cl)cc1/C=C/C(=O)O
110 to 114	O=C(O)CCNS(=O)(=O)c1ccccc1
105 to 107	CC(C)(C)c1ccc(CCC(=O)O)cc1
108 to 110	O=C(c1ccc(Cl)cc1Cl)N1CCNCC1
254 to 256	O=C(O)c1cc(N2CCCC2=O)ccc1F
226 to 228	Clc1ccc2[nH]c3c(c2c1)CNCC3
< 17	CC(C)Cn1c(S)nnc1N1CCOCC1
247 to 249	Cc1ccc(-c2nnc(N)o2)s1
79 to 81	O=C(O)C1CCCN1C(=O)c1ccncc1 (centres undefined)
67 to 69	CNC(c1ccc(Cl)cc1)c1ncccn1 (centres undefined)
148 to 150	CN(C)c1ccc(C(=N)N)c(Cl)c1
119 to 121	Nc1ccc(OC(F)F)c2ncccc12
128 to 130	O=C(c1ccc(F)cc1)c1ncccn1
236 to 238	CCn1ncc2c(C(=O)O)cc(-c3ccccc3)nc21
94 to 96	O=C1CCCc2cc[nH]c21
133 to 135	Cc1cc2occ(CC(=O)O)c2cc1C
163 to 165	Nc1ccccc1NC(=O)Cc1cccs1
77 to 79	CS(=O)(=O)CC(=O)c1ccccc1F
60 to 64	Cc1ccc(C2NCC(CCl)O2)cc1 (centres undefined)
200 to 202	CS(=O)Cc1cc(N)ccc1Cl (centres undefined)

melting point [°C]	SMILES
98 to 105	COC(=O)C(=O)CC(=O)c1ccc2c(c1)OCO2
93 to 95	Fc1cccc(-c2noc(S)n2)c1
169 to 171	CS(=O)(=O)c1c(F)cc(N)cc1F
179 to 181	Cc1cc(C)c(S(N)(=O)=O)cc1C
186 to 188	O=c1c(Cl)c(Cl)cnn1-c1ccc(Cl)cc1
88 to 92	COC(=O)c1sc(S(=O)(=O)Cl)c(C(=O)OC)c1C
136 to 138	O=C(O)C1CC(=O)N(C2CCCC2)C1 (centres undefined)
186 to 188	N#CCc1ccc(C(N)=O)cc1
216 to 218	CS(=O)(=O)c1cc(C(=O)O)ccc1Cl
195 to 197	O=C(Nc1ccccc1)c1ccc(O)cc1
129 to 131	Cc1nn(CCO)c(N)c1C
98 to 100	Cc1ccc(NC(=O)CCl)c(Cl)c1
226 to 228	Sc1nnc(-c2ccc3ccccc3c2)o1
214 to 216	O=C(O)Cn1c(=O)oc2cc([N+](=O)[O-])ccc21
294 to 296	NS(=O)(=O)c1ccc(CCn2c(S)nc3ccccc3c2=O)cc1
197 to 199	O=C(Nc1nnc(C2CC2)s1)OCC(F)(F)F
76 to 78	Oc1ccccc1-c1nc(CCl)no1
203 to 205	O=C(O)c1ccc(Sc2ccc(Cl)cc2)cc1
103 to 115	N#Cc1c(N)sc2c1CCCCC2
90 to 92	CC(C)CCC(=O)NCCCS(N)(=O)=O
120 to 122	CC(=O)c1ccc(-c2ccc(Cl)cc2)s1
211 to 213	O=Cc1c[nH]c2ncccc12
67 to 71	CC(=O)CC(=O)c1ccc(Cl)cc1

melting point [°C]	SMILES
215 to 217	O=C(O)c1cccnc1Nc1ccccc1F
162 to 164	O=C(O)COc1ccc(Cl)c2ccccc12
232 to 234	CNC(=O)c1cccc(C(=O)O)c1
85 to 87	NS(=O)(=O)C1CCOC1 (centres undefined)
193 to 195	COc1ccccc1Oc1ccc(C(N)=S)cc1
145 to 147	CCOc1cc(C=O)cc(Cl)c1O
58 to 60	COc1ccc(C(C)=O)cc1CN1CCOCC1
68 to 70	Nc1cc(C2CCCO2)no1 (centres undefined)
173 to 175	CCOC(=O)c1ccc(-n2c(C)nc3ccccc3c2=O)cc1
219 to 221	CCOc1cccc2c1OCC(C(=O)O)=C2
74 to 76	O=S1(=O)CCCN1c1cccc(Br)c1
132 to 134	CC(=O)c1ccc(NS(=O)(=O)c2ccc(Cl)cc2)cc1
103 to 105	CCOC(=O)c1oc(NC)nc1C
282 to 284	Cc1nn(Cc2c(Cl)cccc2Cl)c2sc(C(=O)O)cc12
76 to 78	OC(c1c(F)cncc1Br)C1CCCCC1 (centres undefined)
109 to 111	CCOC(=O)c1c(Cl)nc2ccccc2c1C
94 to 96	Cc1nc(N)sc1Cc1ccc(F)cc1
155 to 157	Nc1cccc(NC(=O)c2cccnc2)c1
212 to 214	CCOC(=O)c1sc(N)c(C#N)c1C

SMILES	melting point [°C]
COc1ccccc1-c1nn(Cc2ccccc2)cc1C(=O)O	152 to 154
Cn1ccc(C(=O)CCl)c1	49 to 51
Clc1ccc(C2CNCCO2)cc1 (centres undefined)	55 to 57
[N-]=[N+]=Nc1ccnc(C(N)=O)c1	169 to 171
CCN1C(=O)CC(=O)NC1=O	118 to 120
OCC(c1ccc(Cl)cc1)N1CCNCC1 (centres undefined)	116 to 118
CN1CCN(Cc2ccc(N)cc2)CC1	96 to 98
CC(C)(C)C(Br)C(N)=O (centres undefined)	91 to 93
NC1(c2cccc(F)c2)CCOCC1	48 to 50
CC(=O)c1cc(C(=O)C(Cl)(Cl)Cl)n(C)c1	133 to 135
